melting point: 132 to 135 °C
Structure (SMILES): Cc1nc(C(F)(F)F)ccc1-c1nc2c(C)cccc2c(=O)n1C(C)C [Compound 5, 8-methyl-3-(1-methylethyl)-2-[2-methyl-6-(trifluoromethyl)-3-pyridinyl]-4(3H)-quinazolinone]

— patent US20040110777A1, “Quinazolinones and pyridinylpyrimidinones for controlling invertebrate pests” (priority 2003, published 2004)
